In patent publication US20250034218A1, “ANTIMICROBIAL PEPTIDES” (BiomEdit, LLC, priority 2021, published 2025):
Ends that are not written are not given here.

Key:
[1] = test system: Escherichia coli Dh5alpha; experiment: MIC with diluted or undiluted trypsin and without trypsin (variant CAP18 peptides); format: cell-based; settings: compared to WT CAP18
Experimental: (§1) Testing of CAP18 variants for protease resistance using Escherichia coli Dh5alpha as an indicator organism. CAP18 variants were synthesized from GenScript, Inc, and solubilized in sterile purified water to a final concentration of 4 mg/ml. E. coli DH5alpha was grown overnight in 10 ml LB broth. Ten microliters of each CAP18 variant was treated with 2 μl (or 2 μl of the 10-fold diluted trypsin) of trypsin (0.25%, Sigma Aldrich) and incubated at 37° C. for 2 or 5 minutes in a PCR machine. An MIC assay was set up using trypsin-treated CAP18 variants in a 96-well plate. Briefly, the peptides were serially diluted 2-fold in LB broth to achieve a final volume of 50 μl in each well and 50 μl of the E. coli DH5alpha culture adjusted to a concentration of 2×10^6 cells/ml was added into each well. Appropriate controls (media only control, no CAP18 control) were included on the same plate. The plates were incubated at 37° C. for 24-48 hours and MIC for each variant was recorded. The experiment was repeated 3 times.
Numerous variant CAP18 peptides were tested to determine and assess their resistance to protease. In each assessment, the variant CAP18 peptides were compared to wild type CAP18 rabbit sequence ([…] (SEQ ID NO:1)). Peptides were evaluated using trypsin diluted 1:10, 1:2 and undiluted. Experiments were conducted in duplicate. In each instance minimal inhibitory concentration (MIC) of the peptide was determined in the presence of the applicable diluted or undiluted trypsin and in the absence of trypsin. Experiments l and 2 are duplicate assessments with 1:10 diluted trypsin. Experiments 3 and 4 are duplicate assessments with 1:2 diluted trypsin. Experiments 5 and 6 are duplicate assessments with undiluted trypsin.

E. coli DH5 alpha = format: cell-based, Escherichia coli
Experimental: A MIC assay was set up using heat treated CAP18 variants in a 96-well plate. […] Appropriate controls (media only control, no CAP18 control) were included on the same plate. The plates were incubated at 37° C. for 24-48 hours and MIC for each variant was recorded. The experiment was repeated 3 times.

E. coli DH5alpha [2] = format: cell-based, Escherichia coli; settings: peptide treated with proteinase K at 37° C. before MIC assay
Experimental: CAP18 peptide variants single mutants were evaluated for resistance to proteinase K. Peptides were subjected to proteinase K treatment and then assessed for bacterial cell killing (against E. coli) in a MIC assay.
as §1, with “CAP18” for “Testing of CAP18 variants for protease resistance using Escherichia coli Dh5alpha as an indicator organism. CAP18”, “μl” for “μl (or 2 μl”, “proteinase K (Qjagen, >600 mAU/ml)” for “the 10-fold diluted trypsin) of trypsin (0.25%, Sigma Aldrich)”, “machine. The samples were then incubated at 98° C. for 5 minutes to inactivate proteinase K.” for “machine.”, “proteinase K-treated” for “trypsin-treated”

E. coli DH5alpha [3] = format: cell-based, Escherichia coli; settings: peptide treated with trypsin at 37° C. before MIC assay
Experimental: CAP18 peptide variants single mutants were evaluated for resistance to trypsin. Peptides were subjected to trypsin protease treatment and then assessed for bacterial cell killing (against E. coli) in a MIC assay.
as §1, with “CAP18” for “Testing of CAP18 variants for protease resistance using Escherichia coli Dh5alpha as an indicator organism. CAP18”, “machine. The samples were then incubated at 98° C. for 5 minutes to inactivate trypsin.” for “machine.”

[4] = test system: Bovine Respiratory Disease (BRD); settings: positive control treatment; reduces from approximately 30%; cited from earlier work
Giardia = Giardia plate assay, % of control (Table 3); format: cell-based; settings: Conc 10 (uM or %); plate G7
Description: Data comparing AMP01 (wild type CAP 18 peptide (SEQ ID NO: 1) with various other agents is tabulated in Table 3. NTZ corresponds to nitazoxanide. ALB corresponds to albendazole.

CWTKSIPPKPCGLRKKLKKIRNKIKEKLKKIGQKIQGLLPKLAPRTDY (Description of sequence: Mutation Sequence) [SEQ ID NO: 20]
activity (MIC) and protease resistance [1]: better activity (lower MIC) and protease resistance

CWTKSIPPKPCGLRKRLKKIKNKIKEKLKKIGQKIQGLLPKLAPRTDY (Description of sequence: Mutation Sequence) [SEQ ID NO: 18]
activity (MIC) and protease resistance [1]: effective at the lowest concentration (lowest MIC) and was the most protease resistant in all experiments

GLRKRLRKFRPKIKEKLKKIGQKIQGLLPKLAPRTDY [C3]
Thermotolerance at 90 for 5 minutes (MIC, ug/ml) (E. coli DH5 alpha): >400 µg/mL | Resistance to proteinase K (MIC, ug/ml) (E. coli DH5alpha [2]): >400 µg/mL | Resistance to trypsin (MIC, ug/ml) (E. coli DH5alpha [3]): >400 µg/mL

GLRKRLRKFRNKIKEKLKKIGQKIQGLLPKLAPRPDY [C6]
Thermotolerance at 90 for 5 minutes (MIC, ug/ml) (E. coli DH5 alpha): 1200 µg/mL | Resistance to proteinase K (MIC, ug/ml) (E. coli DH5alpha [2]): >400 µg/mL | Resistance to trypsin (MIC, ug/ml) (E. coli DH5alpha [3]): >400 µg/mL

GLRKRLRKIRNKIKEKLKKIGQKIQGLLPKLAPRTDY [C12]
Thermotolerance at 90 for 5 minutes (MIC, ug/ml) (E. coli DH5 alpha): 100 µg/mL | Resistance to proteinase K (MIC, ug/ml) (E. coli DH5alpha [2]): 200 µg/mL | Resistance to trypsin (MIC, ug/ml) (E. coli DH5alpha [3]): 100 µg/mL

CCCNC[C@]1(O)[C@H](C)O[C@@H](O[C@H]2[C@H](C)[C@@H](O[C@@H]3O[C@H](C)C[C@H](N(C)C)[C@H]3O)[C@](C)(O)C[C@@H](C)CN[C@H](C)[C@@H](O)[C@](C)(O)[C@@H](CC)OC(=O)[C@@H]2C)C[C@@]1(C)OC [tulathromycin]
lung consolidation [4]: ~5%

GLRKRIRKFRNKIKEKLKKIGQKIQGLLPKLAPRTDY [C14]
Thermotolerance at 90 for 5 minutes (MIC, ug/ml) (E. coli DH5 alpha): 100 µg/mL | Resistance to proteinase K (MIC, ug/ml) (E. coli DH5alpha [2]): >400 µg/mL | Resistance to trypsin (MIC, ug/ml) (E. coli DH5alpha [3]): 50 µg/mL

GLRKRLRKFRNKIKEKLKKIGQKIQGLLPKPAPRTDY [C5]
Thermotolerance at 90 for 5 minutes (MIC, ug/ml) (E. coli DH5 alpha): >400 µg/mL | Resistance to proteinase K (MIC, ug/ml) (E. coli DH5alpha [2]): >400 µg/mL | Resistance to trypsin (MIC, ug/ml) (E. coli DH5alpha [3]): 400 µg/mL

CCCSc1ccc2nc(NC(=O)OC)[nH]c2c1 [ALB, albendazole]
% of control MV (Giardia): 1.5%

CC(=O)Oc1ccccc1C(=O)Nc1ncc([N+](=O)[O-])s1 [NTZ, nitazoxanide]
% of control MV (Giardia): 0.6%

GLRKRLRPFRNKIKEKLKKIGQKIQGLLPKLAPRTDY [C2]
Thermotolerance at 90 for 5 minutes (MIC, ug/ml) (E. coli DH5 alpha): 100 µg/mL | Resistance to proteinase K (MIC, ug/ml) (E. coli DH5alpha [2]): >400 µg/mL | Resistance to trypsin (MIC, ug/ml) (E. coli DH5alpha [3]): >400 µg/mL

GLRKRLRKFRNKIKPKLKKIGQKIQGLLPKLAPRTDY [C4]
Thermotolerance at 90 for 5 minutes (MIC, ug/ml) (E. coli DH5 alpha): 400 µg/mL | Resistance to proteinase K (MIC, ug/ml) (E. coli DH5alpha [2]): >400 µg/mL | Resistance to trypsin (MIC, ug/ml) (E. coli DH5alpha [3]): >400 µg/mL

GLKKRLRKFRNKIKEKLKKIGQKIQGLLPKLAPRTDY [C7]
Thermotolerance at 90 for 5 minutes (MIC, ug/ml) (E. coli DH5 alpha): 200 µg/mL | Resistance to proteinase K (MIC, ug/ml) (E. coli DH5alpha [2]): >400 µg/mL | Resistance to trypsin (MIC, ug/ml) (E. coli DH5alpha [3]): 50 µg/mL

GIRKRLRKFRNKIKEKLKKIGQKIQGLLPKLAPRTDY [C13]
Thermotolerance at 90 for 5 minutes (MIC, ug/ml) (E. coli DH5 alpha): 200 µg/mL | Resistance to proteinase K (MIC, ug/ml) (E. coli DH5alpha [2]): >400 µg/mL | Resistance to trypsin (MIC, ug/ml) (E. coli DH5alpha [3]): 100 µg/mL

GLRKKLRKFRNKIKEKLKKIGQKIQGLLPKLAPRTDY [C8]
Thermotolerance at 90 for 5 minutes (MIC, ug/ml) (E. coli DH5 alpha): 100 µg/mL | Resistance to proteinase K (MIC, ug/ml) (E. coli DH5alpha [2]): 400 µg/mL | Resistance to trypsin (MIC, ug/ml) (E. coli DH5alpha [3]): 50 µg/mL

GLRKRLRKFRNKIKEKIKKIGQKIQGLLPKLAPRTDY [C15]
Thermotolerance at 90 for 5 minutes (MIC, ug/ml) (E. coli DH5 alpha): 200 µg/mL | Resistance to proteinase K (MIC, ug/ml) (E. coli DH5alpha [2]): >400 µg/mL | Resistance to trypsin (MIC, ug/ml) (E. coli DH5alpha [3]): 50 µg/mL

CWTKSIPPKPCGLRKRLRKIKNKIKEKLKKIGQKIQGLLPKLAPKTDY (Description of sequence: Mutation Sequence) [SEQ ID NO: 21]
activity (MIC) and protease resistance [1]: better activity (lower MIC) and protease resistance

GLRKRLRKFRNKIKEKLKKIGQKIQGLLPKIAPRTDY [C16]
Thermotolerance at 90 for 5 minutes (MIC, ug/ml) (E. coli DH5 alpha): 100 µg/mL | Resistance to proteinase K (MIC, ug/ml) (E. coli DH5alpha [2]): >400 µg/mL | Resistance to trypsin (MIC, ug/ml) (E. coli DH5alpha [3]): 50 µg/mL

GLRKRLRKFKNKIKEKLKKIGQKIQGLLPKLAPRTDY [C10]
Thermotolerance at 90 for 5 minutes (MIC, ug/ml) (E. coli DH5 alpha): 100 µg/mL | Resistance to proteinase K (MIC, ug/ml) (E. coli DH5alpha [2]): 400 µg/mL | Resistance to trypsin (MIC, ug/ml) (E. coli DH5alpha [3]): 50 µg/mL

GLRKRLKKFRNKIKEKLKKIGQKIQGLLPKLAPRTDY [C9]
Thermotolerance at 90 for 5 minutes (MIC, ug/ml) (E. coli DH5 alpha): 50 µg/mL | Resistance to proteinase K (MIC, ug/ml) (E. coli DH5alpha [2]): 400 µg/mL | Resistance to trypsin (MIC, ug/ml) (E. coli DH5alpha [3]): 400 µg/mL

GLRPRLRKFRNKIKEKLKKIGQKIQGLLPKLAPRTDY [C1]
Thermotolerance at 90 for 5 minutes (MIC, ug/ml) (E. coli DH5 alpha): 200 µg/mL | Resistance to proteinase K (MIC, ug/ml) (E. coli DH5alpha [2]): >400 µg/mL | Resistance to trypsin (MIC, ug/ml) (E. coli DH5alpha [3]): 100 µg/mL

GLRKRLRKFRNKIKEKLKKIGQKIQGLLPKLAPKTDY [C11]
Thermotolerance at 90 for 5 minutes (MIC, ug/ml) (E. coli DH5 alpha): 200 µg/mL | Resistance to proteinase K (MIC, ug/ml) (E. coli DH5alpha [2]): >400 µg/mL | Resistance to trypsin (MIC, ug/ml) (E. coli DH5alpha [3]): 200 µg/mL

CWTKSIPPKPCGCRKPLRKIRNKIKEKLKKIGQKIQGLLPKLAPRTDY (Description of sequence: Mutation Sequence) [SEQ ID NO: 22]
activity (MIC) and protease resistance [1]: better activity (lower MIC) and protease resistance

CWTKSIPPKPCGLRKILKKIKNKIKEKLKKIGQKIQGLLPKLAPRTDY (Description of sequence: Mutation Sequence) [SEQ ID NO: 19]
activity (MIC) and protease resistance [1]: better activity (lower MIC) and protease resistance
